From the supplement of paper PMC10307832

What was measured:
Assay in all cases: relative viability (nuclei count vs DMSO), 5 days (fraction); higher = more cells survive
[1] = compound: O=c1[nH]cc(F)c(=O)[nH]1 [5-Fluorouracil] + CC(C)C[C@H](NC(=O)[C@H](Cc1ccccc1)NC(=O)c1cnccn1)B(O)O [Bortezomib] (partner 0.002 µM)
Summary of the method: (§1)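 Nuclei were stained with Hoechst during a one-step fixation (final 0.05% Triton X-100, 1% formaldehyde, 1 ug/ml Hoechst) carried out 5 days after dosing, then counted on 4× images. The cells, lung cancer lines in 1536-well plates, had been dosed by pin tool the day after seeding with one drug alone or a fixed anchor-drug dose plus five library-drug doses (not always all listed) in √10 steps. Relative viability is the nuclei count in treated wells divided by that in vehicle wells, and each value is the median of duplicate plates.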

Sulindac + Phenformin = compound: CC1=C(CC(=O)O)c2cc(F)ccc2/C1=C\c1ccc([S+](C)[O-])cc1 [Sulindac] + N=C(N)NC(=N)NCCc1ccccc1 [Phenformin] (partner 250 µM)
Summary of the method: as §1

[2] = compound: CN[C@@H]1C[C@H]2O[C@@](C)([C@@H]1OC)n1c3ccccc3c3c4c(c5c6ccccc6n2c5c31)C(=O)NC4 [Staurosporine] + C[C@@H](Oc1cc(-c2cnn(C3CCNCC3)c2)cnc1N)c1c(Cl)ccc(F)c1Cl [Crizotinib] (partner 1 µM)
Summary of the method: as §1

Sulindac + Palbociclib = compound: CC1=C(CC(=O)O)c2cc(F)ccc2/C1=C\c1ccc([S+](C)[O-])cc1 [Sulindac] + CC(=O)c1c(C)c2cnc(Nc3ccc(N4CCNCC4)cn3)nc2n(C2CCCC2)c1=O [Palbociclib] (partner 0.5 µM)
Summary of the method: as §1

| Cell Line | relative viability ([1]; first compound 0.02 µM) | relative viability ([1]; first compound 0.2 µM) | relative viability ([1]; first compound 0.6325 µM) | relative viability ([1]; first compound 2 µM) | relative viability (Sulindac + Phenformin; first compound 0.08 µM) | relative viability (Sulindac + Phenformin; first compound 0.253 µM) | relative viability (Sulindac + Phenformin; first compound 0.8 µM) | relative viability (Sulindac + Phenformin; first compound 2.53 µM) | relative viability (Sulindac + Phenformin; first compound 8 µM) | relative viability ([2]; first compound 0.005 µM) | relative viability ([2]; first compound 0.01581 µM) | relative viability ([2]; first compound 0.05 µM) | relative viability ([2]; first compound 0.1581 µM) | relative viability ([2]; first compound 0.5 µM) | relative viability (Sulindac + Palbociclib; first compound 0.08 µM) | relative viability (Sulindac + Palbociclib; first compound 0.253 µM) | relative viability (Sulindac + Palbociclib; first compound 0.8 µM) | relative viability (Sulindac + Palbociclib; first compound 2.53 µM) | relative viability (Sulindac + Palbociclib; first compound 8 µM) |
| --- | --- | --- | --- | --- | --- | --- | --- | --- | --- | --- | --- | --- | --- | --- | --- | --- | --- | --- | --- |
| RERF-LC-KJ | 1.24 | 1.17 | 1.14 | 0.939 | 0.43 | 0.418 | 0.414 | 0.455 | 0.45 | 0.823 | 0.717 | 0.516 | 0.223 | 0.244 | 1.1 | 1.11 | 1.04 | 1.12 | 1.07 |
| EPLC-272H | 0.891 | 0.733 | 0.376 | 0.254 | 0.272 | 0.324 |  | 0.307 | 0.263 | 0.864 | 0.559 | 0.459 | 0.155 | 0.124 | 0.255 |  | 0.323 | 0.305 | 0.318 |
| A-427 | 0.888 | 1.07 | 0.986 | 0.532 | 0.332 | 0.324 | 0.248 | 0.334 | 0.354 | 0.841 | 0.582 | 0.236 | 0.126 | 0.122 | 0.486 | 0.548 | 0.495 | 0.473 | 0.565 |
